Data: ChEMBL document CHEMBL1201862, “PubChem BioAssay data set” (2004)
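Protocol summary: plate cells (96-well), add compound at 5 concentrations, incubate 48 h, interpolate endpoints linearly. The concentration for 50% growth inhibition is given as GI50.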 Activity calls are given as the source filed them. Rule as the data show it: active = GI50 up to about 1.1 µM and inactive = higher.

Assays:
Assay in all cases: NCI-60 cell line screen, 48 h
[1] = system: 786-0
[2] = system: A498
[3] = system: A549
[4] = system: ACHN
[5] = system: BT-549
[6] = system: CCRF-CEM
[7] = system: COLO 205
[8] = system: DU-145
[9] = system: EKVX
[10] = system: HCC 2998
[11] = system: HCT-116
[12] = system: HCT-15
[13] = system: HL-60
[14] = system: HOP-62
[15] = system: HOP-92
[16] = system: HT-29
[17] = system: Hs-578T
[18] = system: IGROV-1
[19] = system: K562
[20] = system: KM12
[21] = system: LOX IMVI
[22] = system: M14
[23] = system: MCF7
[24] = system: MDA-MB-231
[25] = system: MDA-MB-435
[26] = system: MDA-N
[27] = system: MOLT-4
[28] = system: Malme-3M
[29] = system: NCI-H226
[30] = system: NCI-H23
[31] = system: NCI-H460
[32] = system: NCI-H522
[33] = system: NCI/ADR-RES
[34] = system: OVCAR-3
[35] = system: OVCAR-4
[36] = system: OVCAR-5
[37] = system: OVCAR-8
[38] = system: PC-3
[39] = system: RPMI-8226
[40] = system: RXF 393
[41] = system: SF-268
[42] = system: SF-295
[43] = system: SF-539
[44] = system: SK-MEL-28
[45] = system: SK-MEL-5
[46] = system: SK-OV-3
[47] = system: SN12C
[48] = system: SNB-19
[49] = system: SNB-75
[50] = system: SR
[51] = system: SW-620
[52] = system: T47D
[53] = system: TK-10
[54] = system: U-251
[55] = system: UACC-257
[56] = system: UACC-62
[57] = system: UO-31

## O=C(Nn1c(-c2ccccc2)nc2ccccc2c1=O)c1ccccc1O
[1]
  GI50: 65.2 µM (inactive)
[2]
  GI50: 71.6 µM (inactive)
[3]
  GI50: 36.8 µM (inactive)
[4]
  GI50: 37.8 µM (inactive)
[5]
  GI50: 38.6 µM (inactive)
[6]
  GI50: 25.2 µM (inactive)
[7]
  GI50: 67.3 µM (inactive)
[8]
  GI50: 49.1 µM (inactive)
[9]
  GI50: > 100 µM (inactive)
[10]
  GI50: 70.1 µM (inactive)
[11]
  GI50: 33.5 µM (inactive)
[12]
  GI50: 29.4 µM
[13]
  GI50: 27.8 µM (inactive)
[14]
  GI50: 76.9 µM (inactive)
[15]
  GI50: 27.2 µM (inactive)
[16]
  GI50: 61.2 µM (inactive)
[17]
  GI50: > 100 µM (inactive)
[18]
  GI50: 32.2 µM (inactive)
[19]
  GI50: 54 µM (inactive)
[20]
  GI50: 60.1 µM (inactive)
[21]
  GI50: 48.6 µM (inactive)
[22]
  GI50: 51.1 µM (inactive)
[23]
  GI50: 28.1 µM (inactive)
[24]
  GI50: 53.5 µM (inactive)
[25]
  GI50: 49.4 µM (inactive)
[26]
  GI50: 66.2 µM (inactive)
[27]
  GI50: 24 µM (inactive)
[28]
  GI50: 25.7 µM (inactive)
[29]
  GI50: 38.9 µM (inactive)
[30]
  GI50: 34.4 µM (inactive)
[31]
  GI50: 41.8 µM (inactive)
[32]
  GI50: 32.9 µM (inactive)
[33]
  GI50: 34.4 µM (inactive)
[34]
  GI50: 30.3 µM (inactive)
[35]
  GI50: 30.7 µM (inactive)
[36]
  GI50: 49.4 µM (inactive)
[37]
  GI50: 38.5 µM (inactive)
[38]
  GI50: 28.9 µM (inactive)
[39]
  GI50: 51.5 µM (inactive)
[40]
  GI50: 28.2 µM (inactive)
[41]
  GI50: 45.7 µM (inactive)
[42]
  GI50: 63.2 µM (inactive)
[43]
  GI50: 33.7 µM (inactive)
[44]
  GI50: 39.3 µM (inactive)
[45]
  GI50: 19.4 µM (inactive)
[46]
  GI50: 58.9 µM (inactive)
[47]
  GI50: 37.2 µM (inactive)
[48]
  GI50: 45 µM (inactive)
[49]
  GI50: > 100 µM (inactive)
[50]
  GI50: 32.8 µM (inactive)
[51]
  GI50: 41.2 µM (inactive)
[52]
  GI50: 42.3 µM (inactive)
[53]
  GI50: 75.9 µM (inactive)
[54]
  GI50: 44.5 µM (inactive)
[55]
  GI50: 45.6 µM (inactive)
[56]
  GI50: 23.4 µM (inactive)
[57]
  GI50: 36.7 µM (inactive)
